Test results published in patent US20160102002A1, “WATER TREATMENT” (BWA WATER ADDITIVES UK LIMITED, priority 2014, published 2016).

What was measured:
[1] = tested on: Enterobacter aerogenes; test: Log10 reduction of viable facultative anaerobic bacteria in dosed high-TDS suspension (serial dilution into anaerobic acid producing media vials); assay type: cell-based; details: pH 7 phosphate buffer, room temperature, ppm per example
Method: (§1) A suspension of Desulfovibrio vulgaris plus Enterobacter aerogenes bacteria containing from 1×10^6 to 1×10^8 cells/mL was prepared in sterile pH 7 phosphate buffer containing varying levels of sodium chloride to give the desired total dissolved solids (TDS) concentration. Aliquots of this suspension were dosed with the indicated concentrations of phosphonium compound (a) and stabilised halogen containing composition (b) with the concentrations being measured as ppm by weight of the stated composition in the dosed suspension. The mixtures were allowed to stand at room temperature. At the designated contact times, each mixture was sampled to determine the total number of viable cells of both Desulfovibrio vulgaris and Enterobacter aerogenes by serial 10-fold dilution into API RP 38 media vials and anaerobic acid producing media vials, respectively. The vials were incubated at 37° C. for 72 hours. Results were recorded as cells per milliliter. […]
(§2) The efficacy of the treatment agents was evaluated by measuring the Log 10 Reduction of the anaerobic bacterium Desulfovibrio vulgaris and the facultative anaerobeic bacterium Enterobacter aerogenes after contact times of 1 hour and 24 hours as detailed in Tables 1 and 2. […]

[2] = tested on: Desulfovibrio vulgaris; test: Log10 reduction of viable anaerobic bacteria in dosed high-TDS suspension (serial dilution into API RP 38 media vials); assay type: cell-based; details: pH 7 phosphate buffer, room temperature, ppm per example
Method: as §1, §2

[3] = TDS 100,000 mg l^-1, contact time 1 hour
[4] = TDS 100,000 mg l^-1, contact time 24 hours

SMILES | Log10 Reduction Facultative Anaerobes [1, 3] | Log10 Reduction Anaerobes [2, 3] | Log10 Reduction Facultative Anaerobes [1, 4] | Log10 Reduction Anaerobes [2, 4]
CCCCCCCCCCCCCC[P+](CCCC)(CCCC)CCCC.[Cl-] [Example 3, tri n-butyl n-tetradecyl phosphonium chloride] | 0 | 0 | – | –
CCCCCCCCCCCCCC[P+](CCCC)(CCCC)CCCC.[Cl-] [Example 17, tri n-butyl n-tetradecyl phosphonium chloride] | – | – | 0 | 0
